{"source": "patent US10344002B2", "about": "“Compositions and methods for treating metabolic disorders” (NuSirt Sciences, Inc., priority 2016, dated 2019)", "key": {"HepG2 liver cells": {"tested_on": "HepG2 liver cells", "assay": "Lipid accumulation (Oil Red Staining) in HepG2 liver cells induced with high glucose plus insulin", "type": "cell-based", "conditions": "48 hours", "protocol": "Cell Culture: HepG2 liver cells were seeded with 80,000 cells per well on 24-well tissue culture plates in low glucose (5 mM) DMEM containing 10% FBS and antibiotics. After 24 hours of attachment, lipid accumulation was induced by incubating cells with high glucose (25 mM) DMEM (10% FBS, 1% Pen-Strep) plus 100 nM insulin for 48 hours. Cells were then treated with indicated concentrations of Compound 2 for an additional 48 hours.\n(§1) Compound 2 was dissolved in 100% DMSO to a stock concentration of 100 mM. This stock was further diluted to indicated concentrations in DMEM media.\nLipid accumulation (Oil Red Staining): HepG2 liver cells were seeded and treated as described above. After 48 hours of treatment with Compound 2, lipid accumulation in HepG2 was measured via Oil Red Staining. Cells were washed with phosphate buffered saline (PBS) once, then cells were fixated with 10% formalin for 1 hour. After removal of the formalin, cells were washed with ddH2O twice, then washed with 60% isopropanol. Cells were dried completely. Cells were stained with Oil Red working solution (˜5 mM) for 25 minutes, then immediately washed with ddH2O four times, then dried completely again. Oil Red dye was eluted with 100% isopropanol and absorbance was read at 500 nm. Unstained cells plus isopropanol was used as a blank and subtracted from all readings. Data are represented as mean±SEM for each treatment group."}, "Sir2": {"tested_on": "Sir2", "assay": "Western blot, Sir2 protein expression in C. elegans treated from L1 stage to adulthood", "type": "in vivo", "conditions": "for Sir2 protein expression, fold change of control (FIG. 7A): 3 days", "protocol": "(§2) C. elegans culture: Synchronized L1 wild-type worms were transferred to NGM agar plates with the following treatments until adulthood (3 days): 1. control NGM plates, 2. NGM plate with 10 nM Compound 2 added to E. coli suspension, 3. NGM plate with 100 nM Compound 2 added to E. coli suspension.\n(§3) Western blots: Phospho-AMPK, AMPK, Phospho-ACC, ACC antibodies were obtained from Cell Signaling (Danvers, Mass.). Sir2 antibody was obtained from MyBiosource (San Diego, Calif.). Protein levels of cell extracts were measured by BCA kit (Thermo Scientific, Pittsburgh, Pa.). For Western blot, 10-50 μg protein was resolved on 4-15% gradient polyacrylaminde gels (Criterion precast gel, Bio-Rad Laboratories, Hercules, Calif.), transferred to either PVDF or nitrocellulose membranes, incubated in blocking buffer (3% BSA or 5% non-fat dry milk in TBS) and then incubated with primary antibody (1:1000 dilution), washed and incubated with horseradish peroxidase- or fluorescence-conjugated secondary antibody (1:10000 dilution). Visualization was conducted using BioRad ChemiDoc instrumentation and software (Bio-Rad Laboratories, Hercules, Calif.) and band intensity was assessed using Image Lab 4.0 with correction for background and loading controls."}, "C. elegans": {"tested_on": "C. elegans", "assay": "Lifespan of C. elegans under normal and mild oxidative stress (Paraquat) conditions", "type": "in vivo", "conditions": "for increase of median lifespan: 10 nM and 100 nM, p<0.0002", "protocol": "Lifespan Protocol: Wild-type worms were synchronized and hatched L1s were transferred to normal NGM agar plates until L4/young adult stage (3 days). 100 synchronized stage L4 worms per group were picked and placed on NGM agar plates seeded with E. coli strain OP-50 (=day 1 of study). Paraquat was added in the indicated concentration to the agar plates, the Compound 2 concentrations were dissolved in the E. coli suspension. The worms were maintained at 21° C. throughout the duration of the study. Live worms were placed on new plates every day to eliminate progeny.\nStatistics: For the statistical analysis of the lifespan study with C. elegans, data were analyzed via Kaplan-Meier survival curves and statistical significance between curves was determined with the Log-rank (Mantel_Cox) test using Prism 6 (GraphPad Software, La Jolla Calif., USA, www.graphpad.com)."}, "AMPK": {"tested_on": "AMPK", "assay": "Western blot, P-AMPK/AMPK in C. elegans treated from L1 stage to adulthood", "type": "in vivo", "conditions": "for ratio of P-AMPK/AMPK (FIG. 7B): 3 days, control approximately 0.18", "protocol": "as §2, §3"}, "C2C12 muscle cells": {"tested_on": "C2C12 muscle cells", "assay": "Fatty acid oxidation (oxygen consumption rate, Seahorse XF-24) in C2C12 muscle cells", "type": "cell-based", "conditions": "C2C12 muscle cells", "protocol": "Cell Culture: C2C12 muscle cells were seeded with 40,000 cells per well on Seahorse tissue culture plates in Dulbecco's modified eagle's medium (DMEM) containing 10% fetal bovine serum (FBS) and antibiotics (1% penicillin-streptomycin) at 37° C. in 5% CO2. After reaching confluency (24 hours), cells were induced to differentiate with DMEM containing 2% Horse Serum for 3 to 4 days until myotubes were fully formed. Cells were then treated with indicated concentration of Compound 2 for 24 hours.\nas §1\nFatty acid oxidation: Baseline and palmitate-stimulated oxygen consumption rates were measured with XF-24 analyzer (Seahorse Bioscience (now part of Agilent Technologies), MA, USA). After 24 hour treatment with Compound 2 of differentiated C2C12 muscle cells, cells were washed twice with non-buffered carbonate-free pH 7.4 low glucose (2.5 mM) DMEM containing carnitine (0.5 mM), equilibrated with 600 μl of the same media in a non-CO2 incubator for 45 minutes, and then inserted into the instrument for 15 minutes of further equilibration, followed by O2 consumption measurement. Three successive baseline measures at five-minute intervals were taken prior to injection of palmitate (200 μM final concentration). Sets of three five-minute intervals followed by 10-minute time delay were continued over a 2 to 3 hour period after palmitate injection. The area under the curve of 02 consumption change from baseline for each sample was then calculated and used for subsequent analysis. Data are represented as mean±SD for each treatment group."}, "[1]": {"conditions": "mild oxidative stress (500 uM Paraquat)"}}, "data": [{"smiles": "CC(C)C[C@@H]1NC(N=C(N)N)=NC1=O", "note": "[Compound 2]", "values": [{"measurement": "effect on fat accumulation", "setting": "HepG2 liver cells; HepG2, all tested concentrations (1 nM to 10 uM)", "result": "significantly reduced"}, {"measurement": "reduction of fat accumulation (highest effect)", "setting": "HepG2 liver cells; HepG2, high glucose (25 mM) DMEM plus 100 nM insulin, 10 nM, p<0.025", "result": "up to 40%"}, {"measurement": "Sir2 protein expression, fold change of control (FIG. 7A)", "setting": "Sir2; 10 nM", "result": "approximately 1.65 fold change"}, {"measurement": "Sir2 protein expression, fold change of control (FIG. 7A)", "setting": "Sir2; 100 nM", "result": "approximately 1.5 fold change"}, {"measurement": "increase in Sir2 protein expression", "setting": "Sir2; L1 stage to adulthood (3 days), p=0.03", "result": "up to 60%"}, {"measurement": "increase of maximum lifespan", "setting": "C. elegans; [1]", "result": 14, "unit": "%"}, {"measurement": "increase of median lifespan", "setting": "C. elegans; [1]", "result": 30, "unit": "%"}, {"measurement": "increase of median lifespan", "setting": "C. elegans; normal conditions", "result": 18, "unit": "%"}, {"measurement": "ratio of P-AMPK/AMPK (FIG. 7B)", "setting": "AMPK; 10 nM", "result": "approximately 0.27"}, {"measurement": "ratio of P-AMPK/AMPK (FIG. 7B)", "setting": "AMPK; 100 nM", "result": "approximately 0.26"}, {"measurement": "increase of P-AMPK/AMPK protein expression", "setting": "AMPK; L1 stage to adulthood (3 days), p=0.06", "result": "approximately 50%"}, {"measurement": "increase of the baseline oxygen consumption rate (area under the curve)", "setting": "C2C12 muscle cells; 10 nM, 24 hour treatment, prior to palmitate injection, p=0.002", "result": 60, "unit": "%"}, {"measurement": "further increase of palmitate-induced oxygen consumption vs control", "setting": "C2C12 muscle cells; after palmitate injection (200 μM), p=0.002", "result": "~75", "unit": "%"}, {"measurement": "effect on baseline and palmitate-stimulated oxygen consumption rate (OCR)", "setting": "C2C12 muscle cells; concentrations in excess of luM (not shown)", "result": "no effect"}, {"measurement": "dose-response of OCR effects (area under the curve)", "setting": "C2C12 muscle cells; dose-responsive only at 0-10 nM", "result": "plateaued between 10 and 100 nM"}, {"measurement": "dose-response on baseline and palmitate-stimulated OCR", "setting": "C2C12 muscle cells; higher concentrations (>100 nM)", "result": "diminishing responses"}]}]}
